# Source: patent US20230087361A1, “USE OF DIANTHRONE COMPOUND IN PREPARATION OF MEDICAMENT FOR PREVENTION AND/OR TREATMENT OF MYOCARDIAL ISCHEMIC DISEASE AND RELATED DISEASE THEREOF” (National Institutes for Food and Drug Control, priority 2021, published 2023)
# Tests used:
# [1] = system: mice with ISO-induced myocardial ischemia; assay: Serum myocardial enzyme CK-MB (ELISA) in mice with ISO-induced myocardial ischemia; assay type: in vivo, Kunming mice; details: ISO model mice; dianthrone 10 mg/kg intragastric or diltiazem 20 mg/kg intraperitoneal once a day for 10 days; serum 2 h after final ISO; n=7-10
# Procedure: (§1) Male Kunming mice were acclimatized and randomly divided into four groups: a blank control group, an ISO model group, an ISO+diltiazem 20 mg.kg^1 positive control group, and an ISO+dianthrone 10 mgkgi group. Mice in the dianthrone group were intragastrically given the corresponding dose of dianthrone once a day, those in the diltiazem group were intraperitoneally given once a day, and those in the blank control group and the model group were given the same dose of solvent (both of which were 10 mL. kg) for 10 consecutive days. On day 4 of administration, the mice in each group were injected subcutaneously with 40 mg.kg^1 ISO once; the concentration of ISO subcutaneous injection was adjusted to 20 mg.kg^- on days 5 to 10 of administration. All mice were modeled at 2 h after administration. On the final day, the animals were treated at 2 h after ISO administration and modeling. Animal weights were recorded during the experiment. […]
# (§2) Assay for biomarker for myocardial injury and myocardial enzyme: The blood was drawn from the orbit of the mouse, let stand at room temperature for 2 h, and centrifuged at 3,500 rpm for 20 min to separate the serum. The serum levels of CK-MB and cTn-T were detected according to the ELISA kit instructions.
# [2] = system: mice with ISO-induced myocardial ischemia; assay: Serum biomarker for myocardial injury cTn-T (ELISA) in mice with ISO-induced myocardial ischemia; assay type: in vivo, Kunming mice; details: ISO model mice; dianthrone 10 mg/kg intragastric or diltiazem 20 mg/kg intraperitoneal once a day for 10 days; serum 2 h after final ISO; n=7-10
# Procedure: as §1, §2
smiles,measurement,setting,value
"COc1ccc([C@@H]2Sc3ccccc3N(CCN(C)C)C(=O)[C@@H]2OC(C)=O)cc1 [Diltiazem, diltiazem]",CK-MB (serum),[1],7.11 ± 1.63 ng/mL
same,cTn-T (serum),[2],273.93 ± 36.17 ng/L
